Measurements: ChEMBL document CHEMBL4219110, “Structure optimization and preliminary bioactivity evaluation of N-hydroxybenzamide-based HDAC inhibitors with Y-shaped cap” (Bioorg Med Chem, 2018)
One block for each molecule: values may come before it.

Legend:
Histone deacetylase = assay: Inhibition of HDAC in human HeLa cell nuclear extract using Boc-Lys (acetyl)-AMC as substrate preincubated for 5 mins followed by substrate addition measured after 30 mins by fluorescence assay; assay type: protein assay
HEL = assay: cells; conditions: Homo sapiens, 48 h
Description: Antiproliferative activity against human HEL cells after 48 hrs by MTT assay

HeLa = assay: cells; conditions: Homo sapiens, 48 h
MOLT-4 = assay: Antiproliferative activity against human MOLT4 cells after 48 hrs by MTT assay; assay type: functional, cell-based; conditions: MOLT-4, 48 h
Jurkat = assay: Antiproliferative activity against human Jurkat cells after 48 hrs by MTT assay; assay type: functional, cell-based
U-937 = assay: Antiproliferative activity against human U937 cells after 48 hrs by MTT assay; assay type: functional, cell-based; conditions: U-937, 48 h
[1] = Antiproliferative activity against human SK-N-BE(2) cells after 48 hrs by MTT assay; assay type: functional, cell-based; conditions: SKNBE2, 48 h
Histone deacetylase 1 = Histone deacetylase 1 (Homo sapiens, UniProt Q13547); assay: Inhibition of HDAC1 (unknown origin) using Ac-Leu-GlyLys(Ac)-AMC as substrate preincubated for 5 mins followed by substrate addition measured after 30 mins by fluorescence assay
Sequence of Histone deacetylase 1 (Q13547 whole entry): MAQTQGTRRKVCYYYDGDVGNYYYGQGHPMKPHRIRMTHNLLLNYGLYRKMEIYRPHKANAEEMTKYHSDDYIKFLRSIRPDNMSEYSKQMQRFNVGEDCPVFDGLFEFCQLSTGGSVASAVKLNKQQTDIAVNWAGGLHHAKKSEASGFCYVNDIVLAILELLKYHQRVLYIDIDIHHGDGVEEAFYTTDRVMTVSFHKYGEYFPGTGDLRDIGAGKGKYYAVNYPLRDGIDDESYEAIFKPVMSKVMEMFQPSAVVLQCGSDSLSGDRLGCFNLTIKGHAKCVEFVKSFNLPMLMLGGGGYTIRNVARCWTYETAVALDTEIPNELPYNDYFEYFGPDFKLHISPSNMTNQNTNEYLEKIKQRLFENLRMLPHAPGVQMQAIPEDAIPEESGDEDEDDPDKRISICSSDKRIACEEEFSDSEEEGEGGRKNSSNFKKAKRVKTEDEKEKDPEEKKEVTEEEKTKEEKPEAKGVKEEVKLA

[2] = target: T1, Protein deacetylase HDAC6 (Homo sapiens, UniProt Q9UBN7); assay: Inhibition of HDAC6 (unknown origin) using Ac-Leu-GlyLys(Ac)-AMC as substrate preincubated for 5 mins followed by substrate addition measured after 30 mins by fluorescence assay
T1 sequence (Q9UBN7 whole entry): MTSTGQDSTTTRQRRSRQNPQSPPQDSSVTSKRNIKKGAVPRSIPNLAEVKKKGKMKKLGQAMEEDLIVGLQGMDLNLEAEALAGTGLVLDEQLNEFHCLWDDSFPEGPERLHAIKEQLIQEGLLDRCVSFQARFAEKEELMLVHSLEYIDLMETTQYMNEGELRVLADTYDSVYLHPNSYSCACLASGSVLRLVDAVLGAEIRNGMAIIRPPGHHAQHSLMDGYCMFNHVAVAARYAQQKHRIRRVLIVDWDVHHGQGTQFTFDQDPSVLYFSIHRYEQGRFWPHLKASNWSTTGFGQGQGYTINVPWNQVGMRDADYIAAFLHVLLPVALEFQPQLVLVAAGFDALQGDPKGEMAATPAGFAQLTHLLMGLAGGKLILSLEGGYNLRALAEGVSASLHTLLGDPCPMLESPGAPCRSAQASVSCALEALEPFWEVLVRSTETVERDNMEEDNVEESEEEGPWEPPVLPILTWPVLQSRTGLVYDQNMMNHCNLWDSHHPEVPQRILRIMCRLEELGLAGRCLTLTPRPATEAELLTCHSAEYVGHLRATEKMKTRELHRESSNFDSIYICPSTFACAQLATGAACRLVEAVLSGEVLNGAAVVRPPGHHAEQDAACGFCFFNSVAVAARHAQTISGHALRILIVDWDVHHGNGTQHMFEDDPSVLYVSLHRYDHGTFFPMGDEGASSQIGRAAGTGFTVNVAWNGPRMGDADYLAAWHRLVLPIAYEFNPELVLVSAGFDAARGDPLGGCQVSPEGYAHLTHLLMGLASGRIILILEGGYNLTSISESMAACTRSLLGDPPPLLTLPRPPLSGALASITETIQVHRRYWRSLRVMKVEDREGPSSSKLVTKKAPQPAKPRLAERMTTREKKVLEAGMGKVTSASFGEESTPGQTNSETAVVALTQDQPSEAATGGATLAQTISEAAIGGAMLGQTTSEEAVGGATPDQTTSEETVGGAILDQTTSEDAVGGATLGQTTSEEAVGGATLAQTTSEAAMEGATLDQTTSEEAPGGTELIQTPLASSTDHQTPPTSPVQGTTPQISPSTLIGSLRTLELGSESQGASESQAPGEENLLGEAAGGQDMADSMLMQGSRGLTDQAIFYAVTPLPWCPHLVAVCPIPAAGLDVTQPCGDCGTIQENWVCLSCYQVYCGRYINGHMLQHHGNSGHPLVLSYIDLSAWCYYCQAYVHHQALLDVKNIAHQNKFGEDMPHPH

Histone deacetylase 8 = target: T2, Histone deacetylase 8 (Homo sapiens, UniProt Q9BY41); assay: Inhibition of HDAC8 (unknown origin) using Ac-Leu-GlyLys(Ac)-AMC as substrate preincubated for 5 mins followed by substrate addition measured after 30 mins by fluorescence assay
T2 sequence (Q9BY41 whole entry): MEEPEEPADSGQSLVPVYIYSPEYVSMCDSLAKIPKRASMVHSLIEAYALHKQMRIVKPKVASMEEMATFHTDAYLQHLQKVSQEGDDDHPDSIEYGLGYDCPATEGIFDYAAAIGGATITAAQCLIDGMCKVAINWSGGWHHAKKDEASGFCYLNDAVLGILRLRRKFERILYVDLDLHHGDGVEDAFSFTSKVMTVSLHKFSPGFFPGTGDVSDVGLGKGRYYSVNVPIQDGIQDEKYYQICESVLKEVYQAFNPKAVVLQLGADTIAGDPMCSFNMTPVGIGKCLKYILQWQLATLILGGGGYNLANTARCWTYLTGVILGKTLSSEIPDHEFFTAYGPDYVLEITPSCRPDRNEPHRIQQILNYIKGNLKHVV

Histone deacetylase 11 = target: T3, Histone deacetylase 11 (Homo sapiens, UniProt Q96DB2); assay: Inhibition of HDAC11 (unknown origin) using Ac-Leu-GlyLys(Ac)-AMC as substrate preincubated for 5 mins followed by substrate addition measured after 30 mins by fluorescence assay
T3 sequence (Q96DB2 whole entry): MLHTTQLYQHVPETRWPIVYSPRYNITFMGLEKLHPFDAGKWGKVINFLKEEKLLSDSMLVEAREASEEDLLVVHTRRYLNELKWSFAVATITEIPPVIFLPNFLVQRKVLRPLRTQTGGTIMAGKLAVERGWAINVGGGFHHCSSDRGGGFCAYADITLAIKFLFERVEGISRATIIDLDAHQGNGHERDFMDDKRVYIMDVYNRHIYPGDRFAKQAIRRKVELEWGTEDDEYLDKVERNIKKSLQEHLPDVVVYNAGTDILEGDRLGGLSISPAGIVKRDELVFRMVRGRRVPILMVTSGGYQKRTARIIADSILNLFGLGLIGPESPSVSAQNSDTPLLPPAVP

- IC50 (Histone deacetylase): 249.1 nM
Structure (SMILES): O=C(/C=C/c1ccc(C(=O)NO)cc1)N[C@@H](Cc1c[nH]c2ccccc12)C(=O)NC1CCCC1

- IC50 (Histone deacetylase): 112.1 nM
Structure (SMILES): CCNC(=O)[C@H](Cc1c[nH]c2ccccc12)NC(=O)/C=C/c1ccc(C(=O)NO)cc1

- IC50 (HEL): 790 nM
- IC50 (HeLa): 1840 nM
Structure (SMILES): O=C(CCCCCCC(=O)Nc1ccccc1)NO [VORINOSTAT]

- IC50 (Histone deacetylase): 2 nM
- IC50 (MOLT-4): 840 nM
- IC50 (Jurkat): 980 nM
- IC50 (U-937): 630 nM
- IC50 (HEL): 990 nM
- IC50 (HeLa): 1570 nM
Structure (SMILES): O=C(/C=C/c1ccc(C(=O)NO)cc1)N[C@@H](Cc1c[nH]c2ccccc12)C(=O)Nc1ccc(F)cc1
- IC50 [1]: 1320 nM

- IC50 (Histone deacetylase): 29.5 nM
Structure (SMILES): O=C(/C=C/c1ccc(C(=O)NO)cc1)N[C@@H](Cc1c[nH]c2ccccc12)C(=O)Nc1ccc(I)cc1

- IC50 (Histone deacetylase): 84.8 nM
Structure (SMILES): CCCCNC(=O)[C@H](Cc1c[nH]c2ccccc12)NC(=O)/C=C/c1ccc(C(=O)NO)cc1

- IC50 (Histone deacetylase): 2 nM
- IC50 (MOLT-4): 470 nM
- IC50 (Jurkat): 780 nM
- IC50 (U-937): 510 nM
- IC50 (Histone deacetylase 1): 45.3 nM
- IC50 [2]: 127 nM
- IC50 (Histone deacetylase 8): 354 nM
- IC50 (Histone deacetylase 11): 176 nM
- IC50 (HEL): 440 nM
- IC50 (HeLa): 1200 nM
Structure (SMILES): O=C(/C=C/c1ccc(C(=O)NO)cc1)N[C@@H](Cc1c[nH]c2ccccc12)C(=O)Nc1ccc(Br)cc1
- IC50 [1]: 620 nM

- IC50 (Histone deacetylase): 8.1 nM
- IC50 (MOLT-4): 670 nM
- IC50 (Jurkat): 400 nM
- IC50 (U-937): 660 nM
- IC50 (Histone deacetylase 1): 22.9 nM
- IC50 [2]: 51.6 nM
- IC50 (Histone deacetylase 8): 132 nM
- IC50 (Histone deacetylase 11): 76.3 nM
- IC50 (HEL): 490 nM
- IC50 (HeLa): 1660 nM
Structure (SMILES): O=C(/C=C/c1ccc(C(=O)NO)cc1)N[C@@H](Cc1c[nH]c2ccccc12)C(=O)Nc1cccc(Cl)c1
- IC50 [1]: 600 nM

- IC50 (Histone deacetylase): 36.9 nM
Structure (SMILES): O=C(/C=C/c1ccc(C(=O)NO)cc1)N[C@@H](Cc1c[nH]c2ccccc12)C(=O)Nc1ccncc1

- IC50 (Histone deacetylase): 7.6 nM
Structure (SMILES): O=C(/C=C/c1ccc(C(=O)NO)cc1)N[C@@H](Cc1c[nH]c2ccccc12)C(=O)Nc1ccccc1

- IC50 (Histone deacetylase): 268.9 nM
Structure (SMILES): O=C(/C=C/c1ccc(C(=O)NO)cc1)N[C@@H](Cc1c[nH]c2ccccc12)C(=O)NC1CC1

- IC50 (Histone deacetylase): 22.2 nM
Structure (SMILES): Cc1cc(C)c(NC(=O)[C@H](Cc2c[nH]c3ccccc23)NC(=O)/C=C/c2ccc(C(=O)NO)cc2)c(C)c1

- IC50 (Histone deacetylase): 22.5 nM
Structure (SMILES): Cc1ccc(NC(=O)[C@H](Cc2c[nH]c3ccccc23)NC(=O)/C=C/c2ccc(C(=O)NO)cc2)cc1

- IC50 (Histone deacetylase): 59.5 nM
Structure (SMILES): O=C(/C=C/c1ccc(C(=O)NO)cc1)N[C@@H](Cc1c[nH]c2ccccc12)C(=O)Nc1cccc2ccccc12

- IC50 (Histone deacetylase): 165.5 nM
Structure (SMILES): CC(C)(C)NC(=O)[C@H](Cc1c[nH]c2ccccc12)NC(=O)/C=C/c1ccc(C(=O)NO)cc1

- IC50 (Histone deacetylase): 57.1 nM
Structure (SMILES): O=C(/C=C/c1ccc(C(=O)NO)cc1)N[C@@H](Cc1c[nH]c2ccccc12)C(=O)Nc1ccccc1Cl

- IC50 (Histone deacetylase): 37.3 nM
Structure (SMILES): O=C(/C=C/c1ccc(C(=O)NO)cc1)N[C@@H](Cc1c[nH]c2ccccc12)C(=O)NCc1ccccc1

- IC50 (Histone deacetylase): 5.7 nM
- IC50 (MOLT-4): 680 nM
- IC50 (Jurkat): 2680 nM
- IC50 (U-937): 930 nM
- IC50 (Histone deacetylase 1): 54.7 nM
- IC50 [2]: 12.6 nM
- IC50 (Histone deacetylase 8): 47.3 nM
- IC50 (Histone deacetylase 11): 15.8 nM
- IC50 (HEL): 1150 nM
- IC50 (HeLa): 1450 nM
Structure (SMILES): O=C(/C=C/c1ccc(C(=O)NO)cc1)N[C@@H](Cc1c[nH]c2ccccc12)C(=O)Nc1ccc(Cl)cc1
- IC50 [1]: 1590 nM

- IC50 (Histone deacetylase): 35.8 nM
Structure (SMILES): COc1ccc(NC(=O)[C@H](Cc2c[nH]c3ccccc23)NC(=O)/C=C/c2ccc(C(=O)NO)cc2)cc1

- IC50 (Histone deacetylase): 21.8 nM
Structure (SMILES): O=C(/C=C/c1ccc(C(=O)NO)cc1)N[C@@H](Cc1c[nH]c2ccccc12)C(=O)NCCc1ccccc1

- IC50 (Histone deacetylase): 311.9 nM
Structure (SMILES): CC(C)CNC(=O)[C@H](Cc1c[nH]c2ccccc12)NC(=O)/C=C/c1ccc(C(=O)NO)cc1
